Patent US20250282799A1, “SUBSTITUTED PYRIDO[4,3-d]PYRIMIDINES AS KRAS MODULATORS” (Alterome Therapeutics, Inc., priority 2023, published 2025)

Tested on: KRAS G12V dependent lung adenocarcinoma cell line, NCI-H441
Assay: Cellular pERK (Thr202/Tyr204) FRET/HTRF assay
Format: cell-based
Settings: Homo sapiens, NCI-H441, cellular pERK (Thr202/Tyr204) HTRF, NCI-H441 cells
Summary of the method: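 Phospho-ERK1/2 (Thr202/Tyr204) quantified by two-antibody HTRF in lysed NCI-H441 cells. Cells seeded overnight, treated with test compounds for 1 hr at 37 °C against DMSO control, then lysed and detected at room temperature; IC50 obtained by curve fitting.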

SMILES | IC50 [nM]
C#Cc1c(F)ccc2cc(N)cc(-c3ncc4c(N5CCOC[C@H]6[C@H](F)[C@H]65)nc(OC[C@@]56C=C(C)CN5CCC65CC5)nc4c3F)c12 [Example 244, 5-ethynyl-6-fluoro-4-(8-fluoro-4-((1S,7S,8S)-8-fluoro-5-oxa-2-azabicyclo[5.1.0]octan-2-yl)-2-(((S)-6′-methyl-2′,3′-dihydrospiro[cyclopropane-1,1′-pyrrolizin]-7a′(5′H)-yl)methoxy)pyrido[4,3-d]pyrimidin-7-yl)naphthalen-2-amine] | < 50
[2H]C([2H])(F)Oc1c(F)ccc2cccc(-c3ncc4c(N5CCCC[C@H]6[C@H](F)[C@H]65)nc(OC[C@]56C/C(=C/F)CN5CCC65CC5)nc4c3F)c12 [Example 408, (R,Z)-7a′-(((8-fluoro-7-(7-fluoro-8-(fluoromethoxy-d2)naphthalen-1-yl)-4-((1S,7R,8S)-8-fluoro-2-azabicyclo[5.1.0]octan-2-yl)pyrido[4,3-d]pyrimidin-2-yl)oxy)methyl)-6′-(fluoromethylene)hexahydrospiro [cyclopropane-1,1′-pyrrolizine]] | < 50
[2H]C([2H])(Oc1nc(N2CCOC[C@H]3[C@H](F)[C@H]32)c2cnc(-c3cc(O)cc4ccc(C)c(C#C)c34)c(F)c2n1)[C@@]12CCCN1C[C@H](F)C2 [Example 324, 5-ethynyl-4-(8-fluoro-4-((1S,7S,8S)-8-fluoro-5-oxa-2-azabicyclo[5.1.0]octan-2-yl)-2-(((2R,7aS)-2-fluorotetrahydro-1H-pyrrolizin-7a(5H)-yl)methoxy-d2)pyrido[4,3-d]pyrimidin-7-yl)-6-methylnaphthalen-2-ol] | < 50
C=C1CN2CCC[C@@]2(COc2nc(N3CCCC[C@H]4[C@H](F)[C@H]43)c3cnc(-c4cc(N)cc(Cl)c4C(F)(F)F)c(F)c3n2)C1 [Example 367, 3-chloro-5-(8-fluoro-4-((1S,7R,8S)-8-fluoro-2-azabicyclo[5.1.0]octan-2-yl)-2-(((S)-2-methylenetetrahydro-1H-pyrrolizin-7a(5H)-yl)methoxy)pyrido[4,3-d]pyrimidin-7-yl)-4-(trifluoromethyl)aniline] | < 50
Cc1c(F)c(N)cc(-c2ncc3c(N4CCCC[C@@H]5[C@@H](F)[C@@H]54)nc(OC[C@@]45CCCN4CC(=C(F)F)C5)nc3c2F)c1C(F)(F)F [Example 395, 5-(2-(((S)-2-(difluoromethylene)tetrahydro-1H-pyrrolizin-7a(5H)-yl)methoxy)-8-fluoro-4-((1R,7S,8R)-8-fluoro-2-azabicyclo[5.1.0]octan-2-yl)pyrido[4,3-d]pyrimidin-7-yl)-2-fluoro-3-methyl-4-(trifluoromethyl)aniline] | 500 to 10000

The next lines start with the values.

IC50 [nM] | SMILES
< 50 | [2H]C([2H])([2H])Oc1c(F)c(F)c(F)c2cc(N)cc(-c3ncc4c(N5CCOC([2H])([2H])[C@H]6[C@H](F)[C@H]65)nc(OC([2H])([2H])[C@@]56CCCN5C[C@H](F)C6)nc4c3F)c12 [Example 124, 6,7,8-trifluoro-4-(8-fluoro-4-((1S,7S,8S)-8-fluoro-5-oxa-2-azabicyclo[5.1.0]octan-2-yl-6,6-d2)-2-(((2R,7aS)-2-fluorotetrahydro-1H-pyrrolizin-7a(5H)-yl)methoxy-d2)pyrido[4,3-d]pyrimidin-7-yl)-5-(methoxy-d3)naphthalen-2-amine]
< 50 | [2H]C([2H])(F)Oc1c(F)c(F)c(F)c2cc(N)cc(-c3ncc4c(N5CCOC[C@H]6[C@H](F)[C@H]65)nc(OC([2H])([2H])[C@@]56CCCN5C[C@H](F)C6)nc4c3F)c12 [Example 128, 6,7,8-trifluoro-4-(8-fluoro-4-((1S,7S,8S)-8-fluoro-5-oxa-2-azabicyclo[5.1.0]octan-2-yl)-2-(((2R,7aS)-2-fluorotetrahydro-1H-pyrrolizin-7a(5H)-yl)methoxy-d2)pyrido[4,3-d]pyrimidin-7-yl)-5-(fluoromethoxy-d2)naphthalen-2-amine]
< 50 | [2H]C([2H])(Oc1nc(N2CCOC[C@H]3[C@H](F)[C@H]32)c2cnc(-c3cncc4ccc(F)c(OCF)c34)c(F)c2n1)[C@@]12CCCN1C[C@H](F)C2 [Example 126, (1S,7S,8S)-8-Fluoro-2-(8-fluoro-7-(6-fluoro-5-(fluoromethoxy)isoquinolin-4-yl)-2-(((2R,7aS)-2-fluorotetrahydro-1H-pyrrolizin-7a(5H)-yl)methoxy-d2)pyrido[4,3-d]pyrimidin-4-yl)-5-oxa-2-azabicyclo[5.1.0]octane]

Same assay, conditions: Homo sapiens, NCI-H441, pERK HTRF, NCI-H441 cells (KRAS G12V)

IC50 [nM] | SMILES
< 50 | [2H]C([2H])(Oc1nc(N2CCCC[C@H]3[C@H](F)[C@H]32)c2cnc(-c3cc(N)cc4cc(F)c(F)c(OC(F)F)c34)c(F)c2n1)[C@@]12CCCN1C[C@H](F)C2 [Example 67, 5-(Difluoromethoxy)-6,7-difluoro-4-(8-fluoro-4-((1S,7R,8S)-8-fluoro-2-azabicyclo[5.1.0]octan-2-yl)-2-(((2R,7aS)-2-fluorotetrahydro-1H-pyrrolizin-7a(5H)-yl)methoxy-d2)pyrido[4,3-d]pyrimidin-7-yl)naphthalen-2-amine]
< 50 | [2H]C([2H])(Oc1nc(N2CCOC[C@H]3[C@H](F)[C@H]32)c2cnc(-c3cc(N)cc4c(F)c(F)c(F)c(C#C)c34)c(F)c2n1)[C@@]12CCCN1C[C@H](F)C2 [Example 93, 5-Ethynyl-6,7,8-trifluoro-4-(8-fluoro-4-((1S,7S,8S)-8-fluoro-5-oxa-2-azabicyclo[5.1.0]octan-2-yl)-2-(((2R,7aS)-2-fluorotetrahydro-1H-pyrrolizin-7a(5H)-yl)methoxy-d2)pyrido[4,3-d]pyrimidin-7-yl)naphthalen-2-amine]
< 50 | [2H]C([2H])([2H])Oc1c(F)ccc2cccc(-c3ncc4c(N5CCOC[C@H]6[C@H](F)[C@H]65)nc(OC([2H])([2H])[C@@]56CCCN5C[C@H](F)C6)nc4c3F)c12 [Example 43, (1S,7S,8S)-8-Fluoro-2-(8-fluoro-7-(7-fluoro-8-(methoxy-d3)naphthalen-1-yl)-2-(((2R,7aS)-2-fluorotetrahydro-1H-pyrrolizin-7a(5H)-yl)methoxy-d2)pyrido[4,3-d]pyrimidin-4-yl)-5-oxa-2-azabicyclo[5.1.0]octane]

Same assay, conditions: cellular pERK (Thr202/Tyr204) HTRF, NCI-H441 cells

IC50 [nM] | SMILES
< 50 | [2H]C([2H])(Oc1nc(N2CCOC[C@H]3[C@H](Cl)[C@H]32)c2cc(C(F)(F)F)c(-c3ccc(F)c4sc(N)c(C#N)c34)c(F)c2n1)[C@@]12CCCN1C[C@H](F)C2 (atropisomer, axis not shown; (aS)) [Example 420, 2-amino-4-((S)-4-((1S,7S,8S)-8-chloro-5-oxa-2-azabicyclo[5.1.0]octan-2-yl)-8-fluoro-2-(((2R,7aS)-2-fluorotetrahydro-1H-pyrrolizin-7a(5H)-yl)methoxy-d2)-6-(trifluoromethyl)quinazolin-7-yl)-7-fluorobenzo[b]thiophene-3-carbonitrile]

Same assay, conditions: cellular pERK HTRF, NCI-H441 (KRAS G12V) cells

IC50 [nM] | SMILES
500 to 10000 | [2H]C([2H])(Oc1nc(N2CCOC[C@H]3[C@H](F)[C@H]32)c2cc(F)c(-c3cc(O)cc4ccc(F)c(C#C)c34)c(C)c2n1)[C@@]12CCCN1C[C@H](F)C2 (atropisomer, axis not shown; (aS)) [Example 467, 5-Ethynyl-6-fluoro-4-((R)-6-fluoro-4-((1S,7S,8S)-8-fluoro-5-oxa-2-azabicyclo[5.1.0]octan-2-yl)-2-(((2R,7aS)-2-fluorotetrahydro-1H-pyrrolizin-7a(5H)-yl)methoxy-d2)-8-methylquinazolin-7-yl)naphthalen-2-ol]
